Measured values from EP3839043A1, “SCREENING METHODS FOR COMPOUNDS MODULATING POLYAMINE TRANSPORT” (Katholieke Universiteit Leuven, priority 2019, dated 2021).

Test system: isolated mouse cortical neurons
Test: TUNEL staining of SPM-treated primary neurons
Assay type: cell-based
Settings: CA-074 10 µM; SPM 10 µM, 24 h; Atp13a2 knockdown neurons
Source text: Neuron isolation - Primary cortical neurons were derived from E16 FVB/N mice embryos. Pregnant mice were sacrificed on gestation day 16 by cervical dislocation. E16 mice pup brains were collected and placed in a dish containing calcium- and magnesium-free Hanks' Balanced Salt Solution (HBSS, Life Technologies, 14180-046) on ice. Both cerebral hemispheres were separated from the cerebellum. Meninges were removed from the cerebral hemispheres and the brain cortices dissected. Brain cortices were collected, washed twice and digested with 0.05% trypsin (Life Technologies, 25300-054, 10 min at 37°C). Trypsin reaction was terminated by the addition of 7 ml HBSS and 1 ml of horse serum. Cells were separated by pipetting and filtration through a cell strainer (40 µm, Falcon, 352340). Cells were centrifuged at 1,000 rpm for 5 min (4°C), the supernatant discarded and the pellet suspended in 5 ml Dulbecco's Modified Eagle Medium (DMEM; Sigma-Aldrich, D6546) containing GlutaMAX (Life Technologies, 31966-021) containing 5% horse serum (Life Technologies, 26050-088) and 20 mM glucose (Sigma-Aldrich, 8270). Primary cortical neurons were plated in 12 well plates, on cover slips coated with poly-D-lysine (Sigma-Aldrich, P6407). […]
TUNEL staining - TUNEL staining was assessed according to the manufacturer's protocol for the Click-iT Plus TUNEL assay (ThermoFisher, C10617). […]

## CCCNC(=O)[C@H]1O[C@@H]1C(=O)N[C@H](C(=O)N1CCC[C@H]1C(=O)O)[C@@H](C)CC [CA-074]
  SPM-induced neuronal death (TUNEL positivity): rescues SPM-induced neuronal death
